Experiment: Solubility or dispersibility of monomeric dye in vehicle systems
[1] = 50/50 acetone/water, 600 ppm dye
[2] = Methyl ethyl ketone, 600 ppm dye
[3] = Water with 1% ammonium hydroxide, 600 ppm dye
[4] = Water, 0.06% (by weight) or 600 ppm dye

| Compound | Solubility or Dispersibility [1] | Solubility or Dispersibility (Acetone, 600 ppm dye) | Solubility or Dispersibility (Ethanol, 600 ppm dye) | Solubility or Dispersibility (Ethyl acetate, 600 ppm dye) | Solubility or Dispersibility (Methyl acetate, 600 ppm dye) | Solubility or Dispersibility [2] | Solubility or Dispersibility (Propylene glycol, 600 ppm dye) | Solubility or Dispersibility [3] | Solubility or Dispersibility [4] |
| --- | --- | --- | --- | --- | --- | --- | --- | --- | --- |
| COC(=O)c1cc([O][Al]2[n]3c4c5ccccc5c3/N=C3N=C(/N=c5/c6ccccc6/c([n]52)=N/C2=NC(=N\4)/c4ccccc42)c2ccccc2\3)cc(C(=O)OC)c1 [Dye II, Aluminum phthalocyanine(3,5-dicarbo-methoxyphenoxide)] | Partially Soluble | Partially Soluble | Soluble | Partially Soluble | Insoluble | Partially Soluble | Soluble | Insoluble | Insoluble |
| CCCCC(CC)COC(=O)c1ccc(Oc2cccc3c2-c2nc-3nc3[nH]c(nc4nc(nc5[nH]c(n2)c2cccc(Oc6ccc(C(=O)OCC(CC)CCCC)cc6)c52)-c2cccc(Oc5ccc(C(=O)OCC(CC)CCCC)cc5)c2-4)c2cccc(Oc4ccc(C(=O)OCC(CC)CCCC)cc4)c32)cc1 [Dye III, 1(4),8(11),15(18),22(2S)-tetraks((4-(2-ethylhexoxy)carbonyl)phenoxy)phthalocyanine] | Insoluble | Partially Soluble | Insoluble | Soluble | Soluble | Partially Soluble | Insoluble | Insoluble | Insoluble |
| CN1C(=CC=CC=CC=CC2=[N+](C)c3ccc4ccccc4c3C2(C)C)C(C)(C)c2c1ccc1ccccc21.[O-][Cl+3]([O-])([O-])[O-] [Dye IV, 1,1,3,3,3,3-Hexamethyl-4,4,5,5-dibenzo-2,2-indotricarbocyanine perchlorate] | Soluble | Soluble | Soluble | Soluble | Soluble | Soluble | Soluble | Insoluble | Insoluble |
| CCN1C(=CCC2CCC(C=CC3Sc4ccc(Cl)cc4N3CC)=C2N(c2ccccc2)c2ccccc2)Sc2ccc(Cl)cc21 (centres unmarked) [Dye V, 5,5-Dichloro-11-(diphenylamino)-3,3-diethyl-10,12-ethylenethiatri-carbocyanine perchlorate] | Soluble | Soluble | Soluble | Insoluble | Partially Soluble | Soluble |  | Insoluble | Insoluble |
